Reference: US20250051276A1 (priority 2021, published 2025)

How the values were obtained:
[1] = biological target: 5-HT2Cedited (accession number AAF35842.1) (Homo sapiens, UniProt P28335, I156V/I160V/N158S); assay: biochemical; type: binding
[2] = biological target: human recombinant 5-HT2Cedited receptor (Homo sapiens, UniProt P28335, I156V/I160V/N158S); assay: cell-based
Sequence of human recombinant 5-HT2Cedited receptor (P28335 33-458 I156V/N158S/I160V limits assumed): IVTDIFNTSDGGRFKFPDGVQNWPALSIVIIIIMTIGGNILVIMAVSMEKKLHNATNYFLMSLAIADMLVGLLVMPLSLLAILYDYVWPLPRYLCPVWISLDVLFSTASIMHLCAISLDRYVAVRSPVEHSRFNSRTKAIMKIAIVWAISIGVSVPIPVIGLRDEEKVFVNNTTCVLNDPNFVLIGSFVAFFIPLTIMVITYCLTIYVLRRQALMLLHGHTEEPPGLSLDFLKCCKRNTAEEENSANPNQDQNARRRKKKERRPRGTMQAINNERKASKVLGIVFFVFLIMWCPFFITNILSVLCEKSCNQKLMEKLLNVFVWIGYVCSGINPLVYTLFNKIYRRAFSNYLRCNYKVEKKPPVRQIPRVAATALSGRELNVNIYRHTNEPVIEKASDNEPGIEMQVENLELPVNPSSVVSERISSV

Sequence of 5-HT2Cedited (accession number AAF35842.1) (P28335 whole entry I156V/N158S/I160V, looked up): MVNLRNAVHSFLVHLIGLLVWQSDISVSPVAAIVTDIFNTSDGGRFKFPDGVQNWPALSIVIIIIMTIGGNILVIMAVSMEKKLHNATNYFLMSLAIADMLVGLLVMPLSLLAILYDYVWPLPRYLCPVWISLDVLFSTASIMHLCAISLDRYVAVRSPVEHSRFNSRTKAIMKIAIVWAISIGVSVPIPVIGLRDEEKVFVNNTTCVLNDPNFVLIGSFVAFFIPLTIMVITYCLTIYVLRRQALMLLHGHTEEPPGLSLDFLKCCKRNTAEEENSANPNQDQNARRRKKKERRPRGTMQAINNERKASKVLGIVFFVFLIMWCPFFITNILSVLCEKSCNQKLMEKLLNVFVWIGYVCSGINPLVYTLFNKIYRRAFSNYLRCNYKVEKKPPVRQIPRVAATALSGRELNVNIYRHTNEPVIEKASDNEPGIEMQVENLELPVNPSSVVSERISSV

Structure (SMILES) | IC50 [1] [nM] | EC50 [2] [nM]
C[C@H](Cn1ccc2nc(OCc3ccccc3)ccc21)N(C)C [Compound 1, (R)-1-(5-(benzyloxy)-1H-pyrrolo[3,2-b]pyridin-1-yl)-N,N-dimethylpropan-2-amine] | 1000 to 10000 | > 10000
C[C@@H](N)Cn1ccc2nc(OCc3ccccc3)ccc21 [Compound 2, (R)-1-(5-(benzyloxy)-1H-pyrrolo[3,2-b]pyridin-1-yl)propan-2-amine] | > 10000 | > 10000
C[C@H](Cn1ccc2cc(OCc3ccccc3)ccc21)N(C)C [Compound 3, (R)-1-(5-(benzyloxy)-1H-indol-1-yl)-N,N-dimethylpropan-2-amine] | 101 to 1000 | 1000 to 10000
CN[C@H](C)Cn1ccc2cc(OCc3ccccc3)ccc21 [Compound 4, (R)-1-(5-(benzyloxy)-1H-indol-1-yl)-N-methylpropan-2-amine] | 1000 to 10000 | 1000 to 10000
C[C@@H](N)Cn1ccc2cc(OCc3ccc(F)cc3)ccc21 [Compound 5, (R)-1-(5-((4-fluorobenzyl)oxy)-1H-indol-1-yl)propan-2-amine] | 101 to 1000 | 1000 to 10000
C[C@@H](N)Cn1ccc2cc(OCc3cccc(F)c3)ccc21 [Compound 6, (R)-1-(5-((3-fluorobenzyl)oxy)-1H-indol-1-yl)propan-2-amine] | 101 to 1000 | 1000 to 10000
C[C@@H](N)Cn1ccc2cc(OCc3ccccc3F)ccc21 [Compound 7, (R)-1-(5-((2-fluorobenzyl)oxy)-1H-indol-1-yl)propan-2-amine] | 1000 to 10000 | 1000 to 10000
C[C@H](Cn1ccc2cc(OCc3ccc(F)cc3)ccc21)N(C)C [Compound 8, (R)-1-(5-((4-fluorobenzyl)oxy)-1H-indol-1-yl)-N,N-dimethylpropan-2-amine] | 101 to 1000 | > 10000
C[C@H](Cn1ccc2cc(OCc3cccc(F)c3)ccc21)N(C)C [Compound 9, (R)-1-(5-((3-fluorobenzyl)oxy)-1H-indol-1-yl)-N,N-dimethylpropan-2-amine] | 101 to 1000 | > 10000
C[C@H](Cn1ccc2cc(OCc3ccccc3F)ccc21)N(C)C [Compound 10, (R)-1-(5-((2-fluorobenzyl)oxy)-1H-indol-1-yl)-N,N-dimethylpropan-2-amine] | 101 to 1000 | > 10000
CCN(CC)[C@H](C)Cn1ccc2cc(OCc3ccccc3)ccc21 [Compound 11, (R)-1-(5-(benzyloxy)-1H-indol-1-yl)-N,N-diethylpropan-2-amine] | 1000 to 10000 | > 10000
C[C@H](Cn1ccc2cc(OCc3ccccc3)ccc21)N1CCCC1 [Compound 12, (R)-5-(benzyloxy)-1-(2-(pyrrolidin-1-yl)propyl)-1H-indole] | 1000 to 10000 | > 10000
